Reference: US6190849A, “Photographic element containing ballasted tetrazole derivative and inhibitor releasing coupler” (priority 1999, dated 2001)

What was measured:
[1] = Interimage in bilayer format: IDIR-2 in blue layer, IEM in green layer; settings: for Cg /Cb+g (interimage): IEM or CIEM in green layer at 7.2×10^-3 mmol/m^2, higher ratio = more interimage, no-IEM check; for Relative Speed (green layer): IEM or CIEM in green layer, speed point +0.15 density above Dmin, normalized to check
Description: Bilayer photographic elements were prepared by coating the following layers on a cellulose triacetate film support (coverages are in g/m^2). Unless otherwise noted, all comparative and inventive compounds were dispersed in twice their own weight of N,N-dibutyllauramide: […] Layer 3 (Interlayer): gelatin at 0.64, ILS-1 at 0.11 and FD-1 at 0.11. […] Layer 5 (Overcoat): gelatin at 2.79 and 0.02 bis-vinylsulfonemethylether. […] Contrast of the elements was determined using the maximum slope between any two density points. In this test, the ratio of the contrast of the green only exposure to the contrast of the green of a blue and green exposure (Cg /Cb+g) is a measure of the interimage. A higher ratio means more inhibition originating from the blue and affecting the green record. Relative speed of the green layer was determined by measuring the speed point +0.15 density units above Dmin and normalizing to the check position.

[2] = Contrast (gamma) reduction by DI(A)R in single layer film element, C-41 process; settings: DIR at 0.055 mmol/m^2, relative to non-inhibitor containing check; KODAK FLEXICOLOR (C-41)
From the text: The mild inhibitor fragments that are used in this invention are defined as those that cause less than a 45% gamma reduction, or more preferably less than a 40% gamma reduction, relative to a non-inhibitor containing check when coated as the following single layer film element on a cellulose triacetate film support (coverages are in g/m^2): […]
Overcoat Gelatin at 2.79 and 0.02 bis-vinylsulfonemethylether
Imaging Layer Gelatin at 2.79
Magenta Image Coupler M-1 (dispersed at 80% by
weight in tricresyl phosphate and 20% by weight
N,N-dibutyl-2-butoxy-5-t-octylaniline) at 0.692
DIR being tested at 0.055 mmol/m^2 (dispersed in twice
its weight in N,N-dibutyllauramide)
Green sensitized AgBrI at 1.08
Samples of each element were given a stepped exposure and processed in the KODAK FLEXICOLOR (C-41) process as described in British Journal of Photography Annual, 1988, pp 196-198. Contrast of the elements was determined using the maximum slope between any two density points.

Compound	Cg /Cb+g (interimage) [1]	Relative Speed (green layer) [1]	% Contrast Reduction [2] [%]
CCCCOC(=O)CSCCn1nn[nH]c1=S [IEM-7]	1.75	0.95	
CCCCCCCCCCCCCCCCS(=O)(=O)Nc1cc(CSc2nnnn2CC(=O)OCCC)ccc1Oc1cc(C(N)=O)c(O)c2ccccc12 [IDIR-1]			-34.5
CSCC(=O)Nc1cccc(-n2nn[nH]c2=S)c1 [CIEM-8]	1.47	0.92	
CCCCCCCCCCC(Oc1ccc(S(=O)(=O)c2ccc(O)cc2)cc1)C(=O)Nc1ccc(N2N=C(C)C(n3nc(C)c(C(=O)OCCCCCC)n3)C2=O)cc1 (stereo not drawn) [CDIR-9]			-50.1
O=C(O)c1ccc(-n2nn[nH]c2=S)cc1 [CIEM-9]	1.21	1.00	
CCCCCCCCOC(=O)CSCCn1nn[nH]c1=S [IEM-6]	1.31	0.99	
S=c1[nH]nnn1-c1ccccc1 [CIEM-2]	1.44	0.91	
CCCCCCOC(=O)c1nn(C2C(=O)N(c3ccc(NC(=O)C(CC)Oc4ccc(C(C)(C)CC)cc4C(C)(C)CC)cc3)N=C2C)nc1C (stereo not drawn) [CDIR-8]			-49.2
CCCCCCCCCOC(=O)C(CCSC)n1nn[nH]c1=S (stereo not drawn) [IEM-5]	1.39	0.96	
CCCCCCCCCCCCCCCCS(=O)(=O)Nc1ccc(Cl)c(NC(=O)C(C(=O)C(C)(C)C)n2ncc(SCC(=O)OCCCCCC)n2)c1 (stereo not drawn) [CDIR-11]			-58.6
CCC(Oc1ccc(C(C)(C)CC)cc1C(C)(C)CC)C(=O)Nc1ccc(N2N=C(N3CCCC3)C(Sc3nnnn3-c3ccccc3)C2=O)cc1 (stereo not drawn) [CDIR-2]			-67.1
CCCCCC(=O)Nc1cccc(-n2nn[nH]c2=S)c1 [IEM-9]	2.20	0.91	
O=C(CSCCn1nn[nH]c1=S)OC1CCCCC1 [IEM-3]	1.85	0.91	
CCC(C)OC(=O)C(CCSC)n1nn[nH]c1=S (stereo not drawn) [CIEM-6]	1.72	0.90	
CCCCCCCCCCCCCCOc1ccccc1NC(=O)c1cc(Oc2ccc(CSc3nnnn3-c3ccccc3)cc2[N+](=O)[O-])c2ccccc2c1O [CDIR-5]			-70.5
CCCCCCCC(=O)Nc1cccc(-n2nn[nH]c2=S)c1 [IEM-10]	1.96	0.91	

Compound	Cg /Cb+g (interimage) [1]	Relative Speed (green layer) [1]	% Contrast Reduction [2] [%]
CCCCCCCOC(=O)C(CCC)n1nn[nH]c1=S (stereo not drawn) [IEM-8]	2.02	0.91	
CCCCCCCCCCCCCCCCS(=O)(=O)Nc1ccc(Cl)c(NC(=O)C(Oc2ccc([N+](=O)[O-])cc2CN(CC)C(=O)Sc2nnnn2-c2ccccc2)C(=O)C(C)(C)C)c1 (stereo not drawn) [CDIR-7]			-63.9
CCCOC(=O)Cn1nnnc1SC1C(=O)N(c2ccc(NC(=O)C(CC)Oc3ccc(C(C)(C)CC)cc3C(C)(C)CC)cc2)N=C1N1CCCC1 (stereo not drawn) [IDIR-4]			-22.6
CCCCCCCCCCCCCCCCS(=O)(=O)Nc1ccc(Cl)c(NC(=O)C(C(=O)C(C)(C)C)n2nc(C)c(C(=O)OCCCCCC)n2)c1 (stereo not drawn) [CDIR-10]			-53.8
CCCCCCCCCCCCCCOc1ccccc1NC(=O)c1cc(Sc2nnnn2CC)c2ccccc2c1O [IDIR-8]			-2.4
CSCC(CSC)OC(=O)CCn1nn[nH]c1=S [CIEM-7]	1.45	0.90	
CCCCCCCCCCCCCCOc1ccccc1NC(=O)c1cc(Sc2nnnn2-c2ccccc2)c2ccccc2c1O [CDIR-6]			-75.4
CCCCCCCCCCCCOC(=O)C(C)OC(=O)c1ccc(Cl)c(NC(=O)C(C(=O)Nc2cc(C(=O)OC(C)C(=O)OCCCCCCCCCCCC)ccc2Cl)n2nnc3cc(Cl)c(Cl)cc32)c1 (stereo not drawn) [IDIR-7]			-20.0
CCn1nn[nH]c1=S [CIEM-4]	1.22	1.00	
CCCCCCCCCCC(=O)Nc1cccc(-n2nn[nH]c2=S)c1 [IEM-11]	1.29	0.99	
CCCCCCCCCCCCCCOc1ccccc1NC(=O)c1cc(Oc2ccc([N+](=O)[O-])cc2CN(C(=O)Sc2nnnn2-c2ccccc2)C(C)C)c2ccccc2c1O [CDIR-3]			-75.7
O=C(O)Cn1nn[nH]c1=S [CIEM-3]	1.23	0.99	
CCCCCCCCCCCCCCOc1ccccc1NC(=O)c1cc(Oc2ccc(CSc3nnnn3-c3ccccc3)cc2[N+](=O)[O-])c2ccccc2c1O [CDIR-4]			-77.1
CCn1nn[nH]c1=S [CIEM-5]	1.23	1.00	
CCCCCCCCCCCCOc1ccc(C)cc1NC(=O)c1cc(Oc2ccc(CSc3nnnn3CC(=O)OCCC)cc2[N+](=O)[O-])c2ccccc2c1O [IDIR-3]			-24.5
CCCCCCCCCCCCCCCCS(=O)(=O)Nc1ccc(Cl)c(NC(=O)C(Oc2ccc([N+](=O)[O-])cc2CN(CC)C(=O)Sc2nnnn2CC(=O)OCCC)C(=O)C(C)(C)C)c1 (stereo not drawn) [IDIR-2]			-25.3
